# Reference: PubChem BioAssay AID330 (DTP/NCI, 2004)
# Several values for one entry are separate records, joined by “and”; a condition that tells them apart may be missing. Identical values can stand only once. Inconclusive results and toxic doses are left out.
# System: P388 leukemia ip, CD2F1 mice, survival T/C
# Experiment: NCI In Vivo Anticancer Drug Screen. Data for tumor model P388 Leukemia (intraperitoneal) in CD2F1 (CDF1) mice
# Settings: endpoint: median survival time, higher = longer survival
# Method in brief: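 Mice carrying the transplanted tumor received test compound or vehicle. Survival was recorded in each group, and the value is the treated-group measurement divided by that of the vehicle-treated control group.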
# [1] = dose: 100.0 mg/kg/injection, schedule: Q01DX009 (ip), vehicle: Klucel (hydroxypropylcellulose) (HPC)
# [2] = dose: 200.0 mg/kg/injection, schedule: Q01DX009 (ip), vehicle: Klucel (hydroxypropylcellulose) (HPC)
# [3] = dose: 50.0 mg/kg/injection, schedule: Q01DX009 (ip), vehicle: Klucel (hydroxypropylcellulose) (HPC)
# [4] = dose: 50.0 mg/kg/injection, schedule: Q01DX009 (ip), vehicle: saline
# [5] = dose: 200.0 mg/kg/injection, schedule: Q01DX009 (ip), vehicle: saline
# [6] = dose: 100.0 mg/kg/injection, schedule: Q01DX009 (ip), vehicle: saline
# [7] = dose: 50.0 mg/kg/injection, schedule: Q01DX005 (ip), vehicle: Klucel (hydroxypropylcellulose) (HPC)
# [8] = dose: 100.0 mg/kg/injection, schedule: Q01DX005 (ip), vehicle: Klucel (hydroxypropylcellulose) (HPC)
# [9] = dose: 200.0 mg/kg/injection, schedule: Q01DX005 (ip), vehicle: Klucel (hydroxypropylcellulose) (HPC)
smiles,measurement,setting,value
Cc1ncc([N+](=O)[O-])n1CCSC(Cl)(Cl)Cl,T/C,"dose: 12.5 mg/kg/injection, schedule: Q04DX003 (ip), vehicle: saline",99 % of control and 112 % of control
same,T/C,"dose: 25.0 mg/kg/injection, schedule: Q04DX003 (ip), vehicle: saline",102 % of control and 111 % of control
same,T/C,"dose: 50.0 mg/kg/injection, schedule: Q04DX003 (ip), vehicle: saline",112 % of control and 118 % of control
same,T/C,"dose: 100.0 mg/kg/injection, schedule: Q04DX003 (ip), vehicle: saline",112 % of control and 89 % of control
COc1cccc(-c2nsc(=O)o2)c1,T/C,[1],108 % of control
same,T/C,[2],109 % of control
CCSc1ccc2c(cc1=O)C(N)CCc1cc(OC)c(OC)c(OC)c1-2 (stereo unspecified),T/C,[3],96 % of control
same,T/C,[1],121 % of control
COc1cc(CCCOC2OC(COC3OCC(O)C(O)C3O)C(O)C(O)C2O)cc2cc(-c3ccc4c(c3)OCO4)oc12 (stereo unspecified),T/C,"dose: 2.34 mg/kg/injection, schedule: Q01DX005 (ip), vehicle: Klucel (hydroxypropylcellulose) (HPC)",95 % of control
same,T/C,"dose: 4.68 mg/kg/injection, schedule: Q01DX005 (ip), vehicle: Klucel (hydroxypropylcellulose) (HPC)",94 % of control
same,T/C,"dose: 9.37 mg/kg/injection, schedule: Q01DX005 (ip), vehicle: Klucel (hydroxypropylcellulose) (HPC)",98 % of control
same,T/C,"dose: 18.75 mg/kg/injection, schedule: Q01DX005 (ip), vehicle: Klucel (hydroxypropylcellulose) (HPC)",94 % of control
COc1ccccc1-c1cn(O)c(=N)c(C#N)n1,T/C,"dose: 6.25 mg/kg/injection, schedule: Q01DX009 (ip), vehicle: saline with Tween-80",89 % of control
same,T/C,"dose: 12.5 mg/kg/injection, schedule: Q01DX009 (ip), vehicle: saline with Tween-80",94 % of control
same,T/C,"dose: 25.0 mg/kg/injection, schedule: Q01DX009 (ip), vehicle: saline with Tween-80",94 % of control
CC1=CC(=O)C(c2ccc(O)cc2O)=CC1=O,T/C,"dose: 2.5 mg/kg/injection, schedule: Q01DX009 (ip), vehicle: saline with Tween-80",100 % of control
same,T/C,"dose: 5.0 mg/kg/injection, schedule: Q01DX009 (ip), vehicle: saline with Tween-80",95 % of control
same,T/C,"dose: 10.0 mg/kg/injection, schedule: Q01DX009 (ip), vehicle: saline with Tween-80",86 % of control
CC1=CC(=Nc2ccc(N(CCCl)CCCl)cc2)C(C)=C(C)C1=O,T/C,"dose: 100.0 mg/kg/injection, schedule: Q01DX001 (ip), vehicle: Klucel (hydroxypropylcellulose) (HPC)",116 % of control and 123 % of control
CC(=O)OCc1ccncc1,T/C,"dose: 12.5 mg/kg/injection, schedule: Q01DX009 (ip), vehicle: distilled water + Tween-80",95 % of control
same,T/C,"dose: 25.0 mg/kg/injection, schedule: Q01DX009 (ip), vehicle: distilled water + Tween-80",101 % of control
same,T/C,"dose: 50.0 mg/kg/injection, schedule: Q01DX009 (ip), vehicle: distilled water + Tween-80",102 % of control
same,T/C,"dose: 100.0 mg/kg/injection, schedule: Q01DX009 (ip), vehicle: distilled water + Tween-80",110 % of control
same,T/C,"dose: 200.0 mg/kg/injection, schedule: Q01DX009 (ip), vehicle: distilled water + Tween-80",100 % of control
same,T/C,"dose: 400.0 mg/kg/injection, schedule: Q01DX009 (ip), vehicle: distilled water + Tween-80",92 % of control
Cc1[nH]c2ccc(N(C)C)cc2c(=O)c1CN1CCOCC1,T/C,[3],107 % of control
same,T/C,[1],115 % of control
same,T/C,[2],107 % of control
CC(=O)Oc1ccccc1,T/C,"dose: 50.0 mg/kg/injection, schedule: Q04DX003 (ip), vehicle: saline with Tween-80",103 % of control
same,T/C,"dose: 100.0 mg/kg/injection, schedule: Q04DX003 (ip), vehicle: saline with Tween-80",100 % of control
CN1CCC(O)(c2ncc(Br)c3ccccc23)CC1,T/C,"dose: 60.0 mg/kg/injection, schedule: Q01DX005 (ip), vehicle: saline + alcohol",97 % of control
same,T/C,"dose: 120.0 mg/kg/injection, schedule: Q01DX005 (ip), vehicle: saline + alcohol",93 % of control
CCOc1cc2c(cc1C(CC(=O)O)c1ccc(OC)cc1)OCO2 (stereo unspecified),T/C,"dose: 50.0 mg/kg/injection, schedule: Q01DX005 (ip), vehicle: distilled water + Tween-80",101 % of control
same,T/C,"dose: 100.0 mg/kg/injection, schedule: Q01DX005 (ip), vehicle: distilled water + Tween-80",92 % of control
same,T/C,"dose: 200.0 mg/kg/injection, schedule: Q01DX005 (ip), vehicle: distilled water + Tween-80",90 % of control
CCN(CC)CCCC(C)NC(=S)N/N=C(\C)c1ccccn1 (stereo unspecified),T/C,[4],110 % of control and 113 % of control
same,T/C,[5],157 % of control
CCOC(=O)CCCCCCCCNC(=O)N1c2c(nc(N)[nH]c2=O)NCC1CNc1ccc(C(=O)NC(CCC(=O)O)C(=O)O)cc1 (stereo unspecified),T/C,"dose: 50.0 mg/kg/injection, schedule: Q04DX003 (ip), vehicle: Klucel (hydroxypropylcellulose) (HPC)",111 % of control
same,T/C,"dose: 100.0 mg/kg/injection, schedule: Q04DX003 (ip), vehicle: Klucel (hydroxypropylcellulose) (HPC)",106 % of control
same,T/C,"dose: 200.0 mg/kg/injection, schedule: Q04DX003 (ip), vehicle: Klucel (hydroxypropylcellulose) (HPC)",108 % of control
Cn1cnc([N+](=O)[O-])c1Sc1ncn[nH]1,T/C,"dose: 12.5 mg/kg/injection, schedule: Q01DX009 (ip), vehicle: saline",106 % of control
same,T/C,"dose: 25.0 mg/kg/injection, schedule: Q01DX009 (ip), vehicle: saline",122 % of control
same,T/C,[6],122 % of control
same,T/C,[5],113 % of control
CCOc1c(N=Nc2ccc([N+](=O)[O-])cc2)c(C)nn1C(=S)SC,T/C,"dose: 1.87 mg/kg/injection, schedule: Q01DX005 (ip), vehicle: Klucel (hydroxypropylcellulose) (HPC)",108 % of control
same,T/C,"dose: 3.75 mg/kg/injection, schedule: Q01DX005 (ip), vehicle: Klucel (hydroxypropylcellulose) (HPC)",105 % of control
same,T/C,"dose: 7.5 mg/kg/injection, schedule: Q01DX005 (ip), vehicle: Klucel (hydroxypropylcellulose) (HPC)",105 % of control and 89 % of control
same,T/C,"dose: 15.0 mg/kg/injection, schedule: Q01DX005 (ip), vehicle: Klucel (hydroxypropylcellulose) (HPC)",97 % of control
same,T/C,"dose: 60.0 mg/kg/injection, schedule: Q01DX005 (ip), vehicle: Klucel (hydroxypropylcellulose) (HPC)",90 % of control
same,T/C,"dose: 240.0 mg/kg/injection, schedule: Q01DX005 (ip), vehicle: Klucel (hydroxypropylcellulose) (HPC)",87 % of control
CCN(CC)CCSc1c2ccc(Cl)cc2nc2ccc(OC)cc12,T/C,"dose: 12.5 mg/kg/injection, schedule: Q01DX005 (ip), vehicle: saline",106 % of control
same,T/C,"dose: 25.0 mg/kg/injection, schedule: Q01DX005 (ip), vehicle: saline",106 % of control
same,T/C,"dose: 50.0 mg/kg/injection, schedule: Q01DX005 (ip), vehicle: saline",105 % of control and 106 % of control
CCOC(=O)Cn1nc(-c2ccccc2)c(-c2ccccc2)c(C#N)c1=O,T/C,"dose: 25.0 mg/kg/injection, schedule: Q04DX002 (ip), vehicle: distilled water + Tween-80",95 % of control
same,T/C,"dose: 50.0 mg/kg/injection, schedule: Q04DX002 (ip), vehicle: distilled water + Tween-80",107 % of control
same,T/C,"dose: 100.0 mg/kg/injection, schedule: Q04DX002 (ip), vehicle: distilled water + Tween-80",98 % of control
same,T/C,"dose: 200.0 mg/kg/injection, schedule: Q04DX002 (ip), vehicle: distilled water + Tween-80",92 % of control
O=C(NO)c1cccc2ccccc12,T/C,[7],106 % of control
same,T/C,[8],106 % of control
same,T/C,[9],113 % of control
CC(CN(C)C)C(/C=C/c1ccc(F)cc1)=N\Nc1ccccc1 (stereo unspecified),T/C,"dose: 60.0 mg/kg/injection, schedule: Q01DX005 (ip), vehicle: saline with Tween-80",102 % of control
same,T/C,"dose: 120.0 mg/kg/injection, schedule: Q01DX005 (ip), vehicle: saline with Tween-80",122 % of control
C(#CCOc1ccc2c(c1)OCO2)COc1ccc2c(c1)OCO2,T/C,"dose: 50.0 mg/kg/injection, schedule: Q01DX009 (ip), vehicle: other",103 % of control
same,T/C,"dose: 100.0 mg/kg/injection, schedule: Q01DX009 (ip), vehicle: other",104 % of control
same,T/C,"dose: 200.0 mg/kg/injection, schedule: Q01DX009 (ip), vehicle: other",105 % of control
O=C(CNC(=O)c1ccc(Cl)cc1)c1ccc(Br)cc1,T/C,"dose: 12.5 mg/kg/injection, schedule: Q01DX005 (ip), vehicle: saline with Tween-80",94 % of control
same,T/C,"dose: 25.0 mg/kg/injection, schedule: Q01DX005 (ip), vehicle: saline with Tween-80",92 % of control
same,T/C,"dose: 50.0 mg/kg/injection, schedule: Q01DX005 (ip), vehicle: saline with Tween-80",92 % of control
CCn1c(=O)c2cn[nH]c2n(CC)c1=O,T/C,[3],108 % of control
same,T/C,[1],104 % of control
O=C(O)CN(CC(=O)O)Cc1cc(=O)[nH]c(=O)[nH]1,T/C,[4],91 % of control
same,T/C,[6],95 % of control
same,T/C,[5],97 % of control
O=c1c2c(-c3cc(-c4ccccc4)nc4[nH]n(-c5ccccc5)c(=O)c34)cc(-c3ccccc3)nc2[nH]n1-c1ccccc1,T/C,[7],96 % of control
same,T/C,[8],107 % of control
same,T/C,[9],96 % of control
